The values below come from BindingDB's records for doi:10.1016/j.bmcl.2010.10.018 (Merck Frosst Centre For Therapeutic Research, 2010).

The assay is described as follows: Antagonist activity at TP receptor in human platelet assessed as thromboxane A2- induced platelet aggregation.

Regarding `C[C@@H](c1ccc(C(F)(F)F)cc1)n1c2c(c3cc(F)cc(S(C)(=O)=O)c31)CCC[C@@H]2CC(=O)O` [2-((R)-6-fluoro-8-(methylsulfonyl)-9-((S)-1-(4-(trifluoromethyl)phenyl)ethyl)-2,3,4,9-tetrahydro-1H-carbazol-1-yl)acetic acid], the 50% inhibitory concentration (IC50) is 19.4 µM.

The IC50 is the concentration at which inhibition is half-maximal.
